“Also recorded” adds a separate entry of the source. Read-outs that look alike come from different tables or passages of the source.
B1: Bst-I: wild type, natural form of Bacillus stearothermophilus DNA polymerase (protein, UniProt P52026 1-876, looked up)
DNA polymerase I: MKNKLVLIDGNSVAYRAFFALPLLHNDKGIHTNAVYGFTMMLNKILAEEQPTHILVAFDAGKTTFRHETFQDYKGGRQQTPPELSEQFPLLRELLKAYRIPAYELDHYEADDIIGTMAARAEREGFAVKVISGDRDLTQLASPQVTVEITKKGITDIESYTPETVVEKYGLTPEQIVDLKGLMGDKSDNIPGVPGIGEKTAVKLLKQFGTVENVLASIDEIKGEKLKENLRQYRDLALLSKQLAAICRDAPVELTLDDIVYKGEDREKVVALFQELGFQSFLDKMAVQTDEGEKPLAGMDFAIADSVTDEMLADKAALVVEVVGDNYHHAPIVGIALANERGRFFLRPETALADPKFLAWLGDETKKKTMFDSKRAAVALKWKGIELRGVVFDLLLAAYLLDPAQAAGDVAAVAKMHQYEAVRSDEAVYGKGAKRTVPDEPTLAEHLVRKAAAIWALEEPLMDELRRNEQDRLLTELEQPLAGILANMEFTGVKVDTKRLEQMGAELTEQLQAVERRIYELAGQEFNINSPKQLGTVLFDKLQLPVLKKTKTGYSTSADVLEKLAPHHEIVEHILHYRQLGKLQSTYIEGLLKVVHPVTGKVHTMFNQALTQTGRLSSVEPNLQNIPIRLEEGRKIRQAFVPSEPDWLIFAADYSQIELRVLAHIAEDDNLIEAFRRGLDIHTKTAMDIFHVSEEDVTANMRRQAKAVNFGIVYGISDYGLAQNLNITRKEAAEFIERYFASFPGVKQYMDNIVQEAKQKGYVTTLLHRRRYLPDITSRNFNVRSFAERTAMNTPIQGSAADIIKKAMIDLSVRLREERLQARLLLQVHDELILEAPKEEIERLCRLVPEVMEQAVTLRVPLKVDYHYGPTWYDAK

Experiments:
[1] = target: T1, Bst-II DNA polymerase (Geobacillus stearothermophilus, UniProt P52026, A297E/A304V/A338V/A377V/A406D/A433V/A505S/D300E/D309E/D325E/D402N/D540E/D696E/D751E/E459Q/E464D/E476K/E631P/E632L/E667D/F710Y/G298E/G324E/G362A/G483A/G678D/H329D/H417K/H573N/H596R/H691Q/K356Q/K494N/L346M/L461F/L630T/N487E/P355S/P441Q/P480A/Q479H/Q512R/R341H/R467N/R472Q/R516Q/R676Q/R816K/R819Q/R846E/S306V/S373A/S812A/T369S/T436S/T508A/T536V/V307I/V323M/V391A/V410I/V437L/V514I/V537I/V598D/V619A/V692L/V813A); type: biochemical, Bacillus stearothermophilus; conditions: for effect on 5′-3′ polymerization activity of the polymerase: 65° C.
T1 construct: made in house
Procedure: The remaining activity of Bst-II DNA polymerase (produced according to U.S. Pat. No. 6,165,765) in the presence of different concentrations of Glycerol was determined as follows:
(a) In a series of numbered 0.5 ml microcentrifuge tubes were added the following:
The mixtures above were firstly evaporated by Speed-Vacuum, then varying final concentrations of glycerol in each reaction mixture were achieved by adding an appropriate amount of a glycerol stock solution to the above microcentrifuge tubes as indicated below.
(b) All these tubes were incubated at 65° C. for 30 minutes. Then each of the reaction mixtures was pipetted onto a DE-81 filter. After all of the fluid has evaporated, the amount of radioactivity on each filter was measured with scintillation and recorded as X1. Thereafter, the filters were washed three times with 0.3 M Na2HPO4 solution at room temperature, 10 minutes each times, dried at room temperature and then the amount of radioactivity on each filter was measured again and recorded as X2. Incorporation ratio=X2/X1. [formula]

[2] = target: T1, Bst-II DNA polymerase; test: Low-temperature cycle primer extension with Bst-II at different glycerol concentrations (agarose gel); type: biochemical, Bacillus stearothermophilus
Procedure: Bst-II DNA polymerase was used for the study. […]
(§1) The reaction products were run on a 1% agarose gel for electrophoresis and stained by ethidium bromide.
Four different sets of templates and primers were selected representing varying lengths of the DNA segments to be amplified:
The low temperature cycle extension was carried out as follows:
(a) To a 0.2 ml microcentrifuge tube were added.
(b) The mixture above was firstly evaporated by Speed-Vacuum, then the following were added to each microcentrifuge tube containing the evaporated reagents with different sets of template and primers to achieve a final concentration of 35% glycerol and 15% glycerol in the reaction mixture, respectively.
(c) All the microcentrifuge tubes with the reaction mixture were subjected to low temperature cycling as follows:
The reaction products were run on a 1% agarose gel for electrophoresis and stained by ethidium bromide. The reaction products from the mixture containing 35% glycerol were loaded in lane 1, and the reaction products from the mixture containing 15% glycerol were loaded in lane 2.

[3] = test system: rice genome BAC B414f7; test: Low-temperature cycle extension of 17 mer and 30 mer primers with different DNA polymerases (agarose gel); type: biochemical; conditions: Bst system, 15% glycerol, 70° C./37° C./50° C., 35 cycles
Procedure: The polymerases used were Bst-I (wild type produced according to U.S. Pat. No. 5,834,254), Bst-II, and Bca (TaKaRa Co.). The Klenow fragment (Sigma Chemical Co.) was used as a thermolabile DNA polymerase for comparison (Iakobashvili and Lapidot).
The template used was rice genome BAC B414f7.
The two pairs of primers used were: […]
The following reaction system (referred to hereafter as the Bst system) was used.
(a) In a 0.2 ml microcentrifuge tube were added:
(b) The microcentrifuge tubes were subjected to the following temperature cycling.
as §1
In addition, the method of using a reaction mixture containing 4.5 M proline and 17% glycerol in Tris-HCl buffer as recommended by Iakobashvili and Lapidot was also adopted for the reactions with Klenow fragment as the DNA polymerase (hereafter referred to as the Iakobashvili and Lapidot system). The reaction products were also run parallel to those obtained with the Bst system, and illustrated as follows in FIG. 4.

[4] = higher concentrations (greater than about 35%)
[5] = low concentration, not exceeding / up to about 20% (v/v)

T1 sequence (P52026 other isoform, or with tags, fused parts or gaps with the stated changes): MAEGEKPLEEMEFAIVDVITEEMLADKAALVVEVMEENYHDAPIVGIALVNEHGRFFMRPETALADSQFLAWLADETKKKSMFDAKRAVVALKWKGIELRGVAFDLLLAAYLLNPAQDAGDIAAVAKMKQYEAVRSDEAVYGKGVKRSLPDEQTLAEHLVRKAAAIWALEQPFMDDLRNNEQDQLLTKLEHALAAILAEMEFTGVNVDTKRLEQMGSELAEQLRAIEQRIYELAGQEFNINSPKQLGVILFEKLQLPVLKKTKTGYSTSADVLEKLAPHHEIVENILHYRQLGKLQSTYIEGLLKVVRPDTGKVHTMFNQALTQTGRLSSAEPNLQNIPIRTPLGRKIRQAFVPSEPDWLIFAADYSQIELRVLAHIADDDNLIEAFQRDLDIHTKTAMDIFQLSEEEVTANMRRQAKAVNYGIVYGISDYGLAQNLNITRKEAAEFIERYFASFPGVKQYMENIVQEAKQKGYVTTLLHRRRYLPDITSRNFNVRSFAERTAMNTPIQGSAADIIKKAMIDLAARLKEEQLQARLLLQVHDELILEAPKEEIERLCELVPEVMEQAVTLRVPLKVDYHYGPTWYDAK

Row | Molecule | effect on 5′-3′ polymerization activity of the polymerase [1, 4] | effect on 5′-3′ polymerization activity of the polymerase [1, 5] | loss of original polymerization activity ([1]; glycerol 40% (v/v)) | amplification products on gel ([2]; 15% glycerol, target products 250 bp to 2 Kb) | amplification products on gel ([2]; 35% glycerol, target product 1 Kb and 2 Kb) | amplification products on gel ([2]; 35% glycerol, target product 250 bp or 400 bp) | amplification products on gel ([2]; 40% glycerol, template pBluescript(+), low or high template concentration, 70° C./45° C., 35 cycles) | amplification product from 17 mer and 30 mer primer extension [3]
1 | OCCO [ethylene glycol] | detrimental inhibitory effect | increase the sequence-specific DNA polymerization activity |  |  |  |  |  | 
2 | OCC(O)CO [glycerol] | detrimental inhibitory effect; also recorded: invariably suppressed this enzymatic activity | increased the enzymatic activity; also recorded: increase the sequence-specific DNA polymerization activity; also recorded: increased the 5′-3′ polymerization activity | ⅔ | specific amplification products | both specific and non-specific amplification products | no amplification products produced at all | non-specific amplification products of varying sizes | 
3 | B1 |  |  |  |  |  |  |  | generated specific amplification products
